What was measured:
Type in all cases: in vivo
[1] = tested on: Viola tricolor (VIOTR); assay: Herbicidal post-emergence action, section E (Table E10); conditions: application rate 320 g/ha, visual assessment ca. 3 weeks after spraying
Description: (§1) Seeds of mono- and dicotyledonous weed plants and crop plants were sown, in plastic or organic planting pots, in sandy loam, covered with soil and grown in a greenhouse under controlled growth conditions. 2 to 3 weeks after sowing, the test plants were sprayed in the single-leaf stage. The compounds according to the invention, formulated in form of wettable powders (WP) or as emulsifiable concentrates (EC), were sprayed onto the green plant parts as aqueous suspension or emulsion, with the addition of 0.5% of an additive, at an application rate of 600 l of water/ha (converted). The test plants were placed in the greenhouse for ca. 3 weeks under optimum growth conditions, and then the effect of the preparations was assessed visually in comparison with untreated controls (herbicidal effect in percent (%): 100% effect=plants have died off, 0% effect=as control plants).

[2] = tested on: Matricaria inodora (MATIN); assay: Herbicidal post-emergence action, section B (Table B6); conditions: visual rating about 3 weeks after treatment vs untreated controls; for post-emergence activity against MATIN in % / pest or weed control at 1280 g/ha: application rate 1280 g/ha
Procedure: (§2) Seeds of mono- and dicotyledonous weed plants were placed in plastic pots in sandy loam soil (doubly sown with in each case one species of mono- or dicotyledonous weed plants per pot), covered with soil and cultivated in a greenhouse under controlled growth conditions. 2 to 3 weeks after sowing, the test plants were treated at the one-leaf stage. The compounds of the invention, formulated in the form of wettable powders (WP) or as emulsion concentrates (EC), were applied onto the green parts of the plants as aqueous suspension or emulsion with addition of 0.5% additive at a water application rate of 600 liters per hectare (converted). After the test plants had been kept in the greenhouse under optimum growth conditions for about 3 weeks, the activity of the preparations was rated visually in comparison to untreated controls. For example, 100% activity=the plants have died, 0% activity=like control plants.

[3] = tested on: Alopecurus myosuroides (ALOMY); assay: Herbicidal post-emergence action, section B (Table B2); conditions: rated visually about 3 weeks after treatment vs untreated controls, 100% = plants have died, 0% = like control plants
Procedure: as §2

[4] = tested on: Setaria viridis (SETVI); assay: Herbicidal post-emergence action, section E (Table E8); conditions: visual assessment ca. 3 weeks after spraying; for post-emergence activity against SETVI in % / pest or weed control at 320 g/ha: application rate 320 g/ha; for pest or weed control at 80 g/ha / pest or weed control at 320 g/ha: Setaria viridis, 504 h, read-out: post-emergence activity against SETVI in %; for pest or weed control at 80 g/ha: application rate 80 g/ha
Description: as §1

[5] = tested on: Viola tricolor (VIOTR); assay: Herbicidal pre-emergence action, section C (Table C9); conditions: visual grading after ca. 3 weeks; for pre-emergence activity against VIOTR in %: application rate 320 g/ha
Description: (§3) Seeds of mono- and dicotyledonous weed plants and crop plants were sown, in plastic or organic planting pots, in sandy loam and covered with soil. The compounds according to the invention, formulated in the form of wettable powders (WP) or as emulsifiable concentrates (EC), were applied to the surface of the covering soil as aqueous suspension or emulsion, with the addition of 0.5% of an additive, at an application rate of 600 l of water/ha (converted). Following treatment, the pots were placed in a greenhouse and kept under optimum growth conditions for the test plants. The visual grading of the damage to the test plants was carried out after ca. 3 weeks in comparison to untreated controls (herbicidal effect in percent (%): 100% effect=plants have died off, 0% effect=as control plants).

[6] = tested on: Kochia scoparia (KCHSC); assay: Herbicidal pre-emergence action, section C (Table C13); conditions: application rate 320 g/ha, visual grading after ca. 3 weeks
Description: as §3

[7] = tested on: Kochia scoparia (KCHSC); assay: Herbicidal post-emergence action, section E (Table E11); conditions: visual assessment ca. 3 weeks after spraying
Description: as §1

[8] = tested on: Lolium rigidum (LOLRI); assay: Herbicidal post-emergence action, section E (Table E6); conditions: application rate 320 g/ha, visual assessment ca. 3 weeks after spraying; for pest or weed control at 320 g/ha: Lolium rigidum, 504 h, read-out: post-emergence activity against LOLRI in %
Description: as §1

[9] = tested on: Avena fatua (AVEFA); assay: Herbicidal pre-emergence action, section C (Table C4); conditions: 504 h, application rate 320 g/ha, visual grading ca. 3 weeks after treatment vs untreated controls, 100% = plants have died off, 0% = as control plants, read-out: pre-emergence activity against AVEFA
Description: as §3

[10] = tested on: Brassica napus (BRSNW); assay: Post-emergence effects on crop plants, section F (Table F5); conditions: application rate 80 g/ha
How it was run: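 Percent damage was rated by eye roughly 3 weeks after treatment against untreated plants, where 0% = as control and 100% = died off. Spraying used WP or EC formulations plus 0.5% additive at 600 l water/ha, with rates of 320 g/ha or less. Plants were at the single-leaf stage, sown 2-3 weeks earlier in sandy loam under greenhouse conditions.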

[11] = tested on: Brassica napus (BRSNW); assay: Pre-emergence effects on crop plants, section D (Table D5); conditions: application rate 320 g/ha; visual grading after ca. 3 weeks
How it was run: (§4)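 Read-out: visual percent injury versus untreated controls at ca. 3 weeks (0% as control, 100% dead). Treatment: aqueous WP/EC suspension or emulsion with 0.5% additive, 600 l/ha, on soil covering seeds in sandy loam, at 320 g/ha or below, under optimum greenhouse conditions.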

[12] = tested on: Oryza sativa (ORYZA); assay: Pre-emergence effects on crop plants, section D (Table D3); conditions: application rate 80 g/ha; visual grading after ca. 3 weeks
How it was run: as §4

[13] = Tripleurospermum inodorum, post-emergence, 504 h, read-out: post-emergence activity against MATIN in %

In the case of `Cc1cc2c(nc1-c1ccccc1F)N(C(=O)C13CCCC1C(Cl)=NO3)CS2` (centres unmarked) [Example I-104], the “post-emergence activity against VIOTR in %” value [1] is reported as 80%, the “post-emergence activity against MATIN in %” value [2] is reported as 90% and the “post-emergence activity against ALOMY” value ([3]; application rate 1280 g/ha) is reported as 90%. The “post-emergence activity against SETVI in %” value [4] was 90%, the “pre-emergence activity against VIOTR in %” value [5] was 80% and the “pre-emergence activity against KCHSC in %” value [6] was 90%. For the same compound, the “post-emergence activity against KCHSC in %” value ([7]; application rate 320 g/ha) was 90%.
`COCC1(C(=O)N2CSc3cc(C)c(-c4ccccc4F)nc32)CC(Cl)=NO1` (centres unmarked) [Example I-128] was tested, and the “post-emergence activity against MATIN in %” value [2] was 90%, the “post-emergence activity against SETVI in %” value [4] was 80% and the “pre-emergence activity against KCHSC in %” value [6] was 90%. The “post-emergence activity against KCHSC in %” value ([7]; application rate 80 g/ha) was 90% and the “post-emergence activity against LOLRI in %” value [8] was 80%.
In the case of `Cc1cc2c(nc1-c1ccccc1F)NCS2` [Example I-007, 5-(2-fluorophenyl)-6-methyl-2,3-dihydro[1,3]thiazolo[4,5-b]pyridine], the pest or weed control at 1280 g/ha [2, 13] is reported as 90%, the pest or weed control at 320 g/ha ([3]; Alopecurus myosuroides, post-emergence, 504 h, application rate 320 g/ha, read-out: post-emergence activity against ALOMY) is reported as 90% and the pest or weed control at 320 g/ha [9] is reported as 80%. For the same compound, the pest or weed control at 80 g/ha [4] was 90%.
With `CCS(=O)(=O)N1CSc2cc(C)c(-c3ccccc3F)nc21` [Example I-060, 3-(ethylsulfonyl)-5-(2-fluorophenyl)-6-methyl-2,3-dihydro[1,3]thiazolo[4,5-b]pyridine] the pest or weed control at 1280 g/ha [2, 13] was 90%, the pest or weed control at 1280 g/ha ([3]; Alopecurus myosuroides, post-emergence, 504 h, application rate 1280 g/ha, read-out: post-emergence activity against ALOMY) was 90% and the pest or weed control at 320 g/ha [9] was 90%. The pest or weed control at 320 g/ha [4] was 90% and the pest or weed control at 80 g/ha ([5]; Viola tricolor, pre-emergence, 504 h, application rate 80 g/ha, read-out: pre-emergence activity against VIOTR in %) was 90%.
For `Cc1cc2c(nc1-c1ccccc1)N(C(=O)C1(C)CC(Cl)=NO1)CS2` (centres unmarked) [Example I-088], the “post-emergence activity against VIOTR in %” value [1] was 80%, the “post-emergence activity against BRSNW in %” value ([10]; crop plant damage) was 0% and the “post-emergence activity against MATIN in %” value [2] was 90%. For the same compound, the “pre-emergence activity against VIOTR in %” value [5] was 90%, the “pre-emergence activity against KCHSC in %” value [6] was 90% and the “post-emergence activity against KCHSC in %” value ([7]; application rate 320 g/ha) was 80%.
Compound `CCOCCS(=O)(=O)N1C[S+]([O-])c2cc(C)c(-c3ccccc3F)nc21` (centres unmarked) [Example I-127] has a pest or weed control at 320 g/ha ([2]; Tripleurospermum inodorum, post-emergence, 504 h, application rate 320 g/ha, read-out: post-emergence activity against MATIN in %) of 90%, a pest or weed control at 320 g/ha [4] of 80% and a pest or weed control at 320 g/ha ([6]; Bassia scoparia, pre-emergence, 504 h, read-out: pre-emergence activity against KCHSC in %) of 90%. It also gave a pest or weed control at 80 g/ha ([7]; Bassia scoparia, 504 h, application rate 80 g/ha, read-out: post-emergence activity against KCHSC in %) of 90% and a pest or weed control at 320 g/ha [8] of 80%.
For `Fc1ccccc1-c1nc2c(cc1Br)SCN2` [Example I-001, 6-bromo-5-(2-fluorophenyl)-2,3-dihydro[1,3]thiazolo[4,5-b]pyridine], the crop plant damage (phytotoxicity) in % at 80 g/ha ([10]; Brassica napus, 504 h, read-out: post-emergence activity against BRSNW in %) was 20%, the “pre-emergence activity against BRSNW in % (crop plant damage)” value [11] was 20% and the “pre-emergence activity against ORYZA in % (crop plant damage)” value [12] was 20%. It also gave a pest or weed control at 320 g/ha [9] of 80%, a pest or weed control at 80 g/ha [4] of 90% and a pest or weed control at 320 g/ha [8] of 90%.

Source: patent publication US20240381872A1, “SUBSTITUTED 2,3-DIHYDRO[1,3]THIAZOLO[4,5-B]PYRIDINES, SALTS THEREOF AND THEIR USE AS HERBICIDALLY ACTIVE SUBSTANCES” (BAYER AKTIENGESELLSCHAFT, priority 2021, published 2024)
